The source of these data is patent publication US9611253B2, “Solid forms comprising optically active pyrazolylaminoquinazoline, compositions thereof, and uses therewith” (AMBIT BIOSCIENCES CORPORATION, priority 2012, dated 2017).

Molecules are shown by their SMILES.

Data set [1] can be described thus: Stability of esylate salt in water and aqueous ethanol (dissociation to free base). The format is physicochemical. Conditions: in water and aqueous ethanol solutions. The text has this:
Spontaneous precipitation from the aqueous solution afforded Compound 6 as free base; a new crystalline XRPD pattern was observed (See FIG. 38). The free base of Compound 6 was partially precipitated upon water addition to the ethanol solution and was further recovered by evaporation of the ethanol: water solution. These observations indicate the esylate salt is unstable in water and aqueous ethanol due to dissociation.
A new crystalline XRPD pattern designated as Form A of the free base of Compound 6 was observed from precipitation in ethanol with water (antisolvent) when amorphous ethanesulfonate salt of Compound 6 was used. (FIG. 38, top pattern). Summary of the data obtained for Form A of the free base is shown below in Table 16. […] The Compound 6 free base was recovered by further evaporation of the aqueous ethanol solution. […] These observations indicate the esylate salt is unstable due to dissociation in water and aqueous ethanol solutions.

Data set [2] is described as follows: Solubility in ethanol observed during salt formation. The format is physicochemical. The method, then: To a 2-L Morton flask equipped with a heating mantle, thermocouple, condenser and mechanical stirrer was charged (4-fluorophenyl)(4-((5-methyl-1H-pyrazol-3-yl)amino)quinazolin-2-yl)methanol free base (40.20 g, 115 mmol, 1.0 equiv.). Ethanol (1.6 L) was added and the suspension was stirred and heated to reflux (78° C., internal temperature) until dissolution of the suspension was observed. Ethanesulfonic acid (9.4 mL, 115 mmol, 1.0 equiv.) was charged to the resulting yellow solution. Reflux was maintained for 1 hour, then heating was discontinued and the reaction was allowed to cool to room temperature and stirred overnight. Stirring was stopped and the solids were allowed to settle. The reaction was filtered and the initial isolated product (R)-(4-fluorophenyl)(4-((5-methyl-1H-pyrazol-3-yl)amino)quinazolin-2-yl)methanol dried in a vacuum oven (45° C., ˜20 torr) for 3 days to produce 29.69 g, 65 mmol, 56% yield. The supernatant was concentrated and a second crop of the product was obtained and dried as the first to produce 10.52 g, 23 mmol, 20% yield.
The combined yield for the two crops was 76%. […] Higher yields of salt can be obtained by reducing the amount of ethanol. […]

The nature of data set [3]: Solubility/crystallization screen of Compound 6 salts (20 mg salt, solvent, heating, then standing).
Method: The resulting solids were analyzed by DSC and portions of each salt were tested for solubility and crystallization from the following solvents:
20 mg of salt was charged to a 1-dram screw-top vial. Solvent (enough to cover the solids) was added, the vial was capped and heated (heat gun) to aid dissolution. If no, or partial dissolution was observed, the vial was allowed to cool, additional solvent was added and the process repeated. The solubility was characterized as follows: Soluble (sol): the solids dissolved upon heating, Sparingly soluble (sp): the solids dissolved upon heating after two or more additions of solvent or Insoluble (I): complete dissolution could not be achieved. […] The vials containing solids were filtered and analyzed by DSC.
Where [4] appears, read: standing 1 h after cooling to room temperature.
[5] abbreviates: standing 4 d after cooling to room temperature.

As to `CCS(=O)(=O)O` [Ethanesulfonic acid], the “Stability of the salt (dissociation to free base)” value in data set [1] is reported as “unstable”. Besides, the “Solubility in ethanol compared to the free base” value in data set [2] is reported as “higher solubility in ethanol”. Also, in data set [3] (Heating), the “Solubility in EtOH” value is given as “sol”, the “Solubility in H2O” value is “sol”, the “Solubility in IPA” value is listed as “sol” and the “Solubility in MeOH” value is on record as “sol”. In addition, in data set [3] (setting [4]), the “Solubility/crystallization in EtOH” value is “cryst”, the “Solubility/crystallization in H2O” value is on record as “gels”, the “Solubility/crystallization in IPA” value is given as “cryst” and the “Solubility/crystallization in MeOH” value was “sol”. For the same compound, in data set [3] (setting [5]), the “Solubility/crystallization in EtOH” value was “cryst”, the “Solubility/crystallization in IPA” value is reported as “cryst” and the “Solubility/crystallization in MeOH” value was “sol”.
